Values quoted from earlier work, collected in US20240041828A1, “Combination Therapeutics Comprising Nrf2 Agonists and Antivirals for Treating Viral Infections” (The Regents of the University of California, priority 2022, published 2024).
Counter-ions that a name gives are not always drawn. Like-named read-outs stand apart in the source and are kept apart here.

Test system: human mammalian cells
Details: cited from earlier work

SMILES	concentration shown to be physiologically relevant, efficacious and non-cytotoxic	concentration shown to be physiologically relevant, efficacious and non-cytotoxic (human mammalian cells)
COC(=O)/C=C/C(=O)OC [DMF, Dimethyl fumarate]	0.1-100 μM	–
COC1=C(OC)C(=O)C(CCCCCCCCCC[P+](c2ccccc2)(c2ccccc2)c2ccccc2)=C(C)C1=O.CS(=O)(=O)[O-] [Mito-MES, 10-(4,5-dimethoxy-2-methyl-3,6-dioxo-1,4-cyclohexadienyl) decyl triphenylphosphonium methanesulfonate]	–	10-1000 nM
